# Laboratory results taken from patent publication US9192164B2, “Membrane sterilization” (SABAN VENTURES PTY LIMITED, priority 2005, dated 2015).
# Like-named read-outs stand apart in the source and are kept apart here.
# Tests used:
# [1] = rabbits, EU criteria (ECETOC, 1996); solution of 35% or less; cited from earlier work
# bio burden = settings: for Log reduction in bio burden: KIMGUARD bag, air RH=20% at 12 m/s over exterior
substance,measurement,setting,value
hydrogen peroxide [H2O2],Classification as skin irritant,[1],would not be classified as skin irritants
same,Pennicylinders Plate count,"bio burden; Expt A: initial H2O2 10%, nebulizer 2/18 sec ON/Off for 2 mins, total exposure 5 mins, 40 °C in bag",0
same,Pennicylinders Log reduction of bio burden,"bio burden; Expt A: initial H2O2 10%, nebulizer 2/18 sec ON/Off for 2 mins, total exposure 5 mins, 40 °C in bag, 0.0338 g/L delivered",6.0
same,Pennicylinders Plate count,"bio burden; Expt B: initial H2O2 30%, nebulizer 8/12 sec ON/Off for 2 mins, total exposure 2 mins, 44 °C in bag",0
same,Pennicylinders Log reduction of bio burden,"bio burden; Expt B: initial H2O2 30%, nebulizer 8/12 sec ON/Off for 2 mins, total exposure 2 mins, 44 °C in bag, 0.246 g/L delivered",6.0
same,Log reduction in bio burden,bio burden; within 2 minutes nebulising a 30% peroxide solution,6
same,Log reduction in bio burden,bio burden; within 5 minutes nebulising a 10% peroxide solution,6
